According to patent US5633219A, “5H-pyrrolo(3',4':5,6)(1,4)dithiin o(2,3-C)(1,2,5)thiadiazole-5,7(6H)-dione, compositions containing them and their use as antimicrobial and marine antifouling agents” (The Dow Chemical Company, priority 1996, dated 1997):
Converted amounts (≈) assume the structure as drawn. Like-named read-outs stand apart in the source and are kept apart here.

How the values were obtained:
[1] = test system: Pseudomonas aeruginosa (Pa); test: Minimum inhibitory concentration, nutrient agar, Pseudomonas aeruginosa; format: cell-based, Pseudomonas aeruginosa ATCC 10145; conditions: 30° C, 48 hours
[2] = test system: Salmonella choleraesuis (Sc); test: Minimum inhibitory concentration, nutrient agar, Salmonella choleraesuis; format: cell-based, Salmonella choleraesuis ATCC 10708; conditions: Salmonella enterica, 30° C, 48 hours
[3] = test system: Aspergillus niger (An); test: Minimum inhibitory concentration, malt yeast agar, Aspergillus niger; format: cell-based, Aspergillus niger ATCC 16404; conditions: 30° C, 72 hours (fungi)
Method: (§1) Malt yeast agar is prepared by adding 3 g yeast extract and 45 g malt agar per liter of deionized water. The specific agar is dispensed in 30 mL aliquots into 25×200 mm test tubes, capped and autoclaved for 15 minutes at 115° C.
(§2) The inoculation with the yeast and fungi is accomplished as follows. Cultures of yeast and fungi are incubated for seven days on malt yeast agar at 30° C. These cultures are used to prepare suspensions by the following procedure. A suspension of each organism is prepared by adding 10 mL of sterile saline and 10 microliters of octylphenoxy polyethoxy ethanol to the agar slant of yeast or fungi. The sterile saline/octylphenoxy polyethoxy ethanol solution is then agitated with a sterile swab to suspend the microorganism grown on the slant. Each resulting suspension is diluted into sterile saline (1 part suspension to 9 parts sterile saline). Aliquots of these dilutions are placed in individual wells of Steer's Replicator and petri plates inoculated as previously described. The petri plates are incubated at 30° C. and read after 48 hours for yeast and 72 hours for fungi.

[4] = test system: Candida albicans (Ca); test: Minimum inhibitory concentration, malt yeast agar, Candida albicans; format: cell-based, Candida albicans ATCC 10231; conditions: malt yeast agar, 30° C, 48 hours (yeast); read-out: Minimum Inhibitory Concentration, Ca
Method: as §1, §2

[5] = test system: Penicillium chrysogenum (PC); test: Minimum inhibitory concentration, malt yeast agar, Penicillium chrysogenum; format: cell-based, Penicillium chrysogenum ATCC 9480; conditions: malt yeast agar, 30° C, 72 hours (fungi); read-out: Minimum Inhibitory Concentration, Pc
Method: as §1, §2

[6] = test system: Saccharomyces cerevisiae (Sc); test: Minimum inhibitory concentration, malt yeast agar, Saccharomyces cerevisiae; format: cell-based, Saccharomyces cerevisiae ATCC 4105; conditions: malt yeast agar, 30° C, 48 hours (yeast), read-out: Minimum Inhibitory Concentration, Sc
Method: as §1, §2

[7] = test system: Trichoderma viride (Tv); test: Minimum inhibitory concentration, malt yeast agar, Trichoderma viride; format: cell-based, Trichoderma viride ATCC 8678; conditions: malt yeast agar, 30° C, 72 hours (fungi); read-out: Minimum Inhibitory Concentration, Tv
Method: as §1, §2

[8] = test system: Aureobasidium pullulan (Ap); test: Minimum inhibitory concentration, malt yeast agar, Aureobasidium pullulan; format: cell-based, Aureobasidium pullulan ATCC 16622; conditions: 30° C, 48 hours for yeast and 72 hours for fungi
Method: as §1, §2

[9] = test system: Fusarium oxysporum (Of); test: Minimum inhibitory concentration, malt yeast agar, Fusarium oxysporum; format: cell-based, Fusarium oxysporum ATCC 48112; conditions: 30° C, 72 hours (fungi), read-out: Minimum Inhibitory Concentration, Fo
Method: as §1, §2

[10] = test system: marine organisms; test: Marine antifouling rating of coated test panels exposed under a marine surface; conditions: scale 10 (completely free of growth) to 0 (completely covered), 1.0 g compound in 9.0 g latex binder
Method: Test panels are prepared from clear, rigid polyvinyl chloride film that is 0.381×10^-3 m thick and has one textured surface. The test panels are 0.1524 m by 0.1524 m squares that have 0.00635 m holes punched at corners on 0.127 m centers. A 0.102 square template, with a 0.067 m diameter hole at the center, is attached to the center of the textured surface of the test panels.
A candidate marine antifoulant compound (1.0 g) is stirred into a resinous latex binder (9.0 g). A portion of the compound/binder mixture (1.5 g) is added to the center of the test panel and uniformly spread over the circular area inside the template.
Water is added dropwise as needed to properly spread the compound/binder mixture. The template prevents the compound/binder mixture from spreading beyond the uncovered area. The test panel is allowed to sit for between 10 to 30 minutes until the edge of the spread compound/binder mixture has dried. The template is then removed. The test panel is then allowed to dry for 8 to 12 hours at room temperature.
Two test panels are prepared for each candidate marine antifoulant compound. Two control test panels are also prepared by only treating with the resinous latex binder. One test panel of each candidate marine […] compound is attached over a white background to the topside of an exposure support apparatus. The second test panel is attached over a black background to the underside of the exposure support apparatus. The exposure support apparatus is placed horizontally 0.0254 m under a marine surface with the white background topside facing up. […]
After being removed from the exposure support apparatus, each test panel is inspected and rated for marine organism growth on both the treated and untreated areas of the test panel. The marine organisms present on the treated and untreated areas are noted. The presence of algae spores and bacterial slime are noted but not included in rating each test panel. The test panels are rated on a scale from 10 (representing completely free of marine organism growth) to 0 (representing completely covered with marine organism growth).

[11] = test system: Escherichia coli (Ec); test: Minimum inhibitory concentration, nutrient agar, Escherichia coli; conditions: 48 h
[12] = test system: Proteus vulgaris (Pv); test: Minimum inhibitory concentration, nutrient agar, Proteus vulgaris; conditions: 48 h
[13] = test system: Bacillus subtilis (Bs); test: Minimum inhibitory concentration, nutrient agar, Bacillus subtilis; conditions: 48 h
[14] = test system: Klebsiella pneumoniae (Kp); test: Minimum inhibitory concentration, nutrient agar, Klebsiella pneumoniae; conditions: 48 h
[15] = test system: Staphylococcus aureus (Sa); test: Minimum inhibitory concentration, nutrient agar, Staphylococcus aureus; conditions: 48 h
[16] = test system: Enterobacter aerogenes (Ea); test: Minimum inhibitory concentration, nutrient agar, Enterobacter aerogenes; conditions: Klebsiella aerogenes, 48 h
[17] = test system: Pseudomonas aeruginosa (PRD-10); test: Minimum inhibitory concentration, nutrient agar, Pseudomonas aeruginosa PRD-10; conditions: 48 h
[18] = pH 6.8, read-out: Minimum inhibitory Concentration, Ec
[19] = pH 8.2, read-out: Minimum inhibitory Concentration, Ec
[20] = pH 6.8, read-out: Minimum inhibitory Concentration, Pv
[21] = pH 8.2, read-out: Minimum inhibitory Concentration, Pv
[22] = pH 6.8, read-out: Minimum inhibitory Concentration, Bs
[23] = pH 8.2, read-out: Minimum inhibitory Concentration, Bs
[24] = pH 6.8, read-out: Minimum inhibitory Concentration, Kp
[25] = pH 8.2, read-out: Minimum inhibitory Concentration, Kp
[26] = pH 6.8, read-out: Minimum inhibitory Concentration, Sa
[27] = pH 8.2, read-out: Minimum inhibitory Concentration, Sa
[28] = pH 6.8, read-out: Minimum inhibitory Concentration, Ea
[29] = pH 8.2, read-out: Minimum inhibitory Concentration, Ea
[30] = pH 6.8, read-out: Minimum inhibitory Concentration, PRD
[31] = pH 8.2, read-out: Minimum inhibitory Concentration, PRD

SMILES	MIC ([1]; pH 8.2, nutrient agar)	MIC ([2]; pH 6.8, nutrient agar)	MIC ([2]; pH 8.2, nutrient agar)	MIC [4]	MIC [5]	MIC [6]	MIC [7]	MIC [8]	MIC [9]	MIC [11, 18]	MIC [11, 19]	MIC [12, 20]	MIC [12, 21]	MIC [13, 22]	MIC [13, 23]	MIC [14, 24]	MIC [14, 25]	MIC [15, 26]	MIC [15, 27]	MIC [16, 28]	further results
O=c1[nH]c(=O)c2sc3nsnc3sc1=2 [Example I, 5H-Pyrrolo(3',4':5,6)(1,4)dithiino-(2,3-C) (1,2,5)thiadiazole-5,7 (6H) -dione]	> 500 µg/mL	100 µg/mL (≈ 411 µM)	> 500 µg/mL	5 µg/mL (≈ 20.6 µM)	< 1 µg/mL	< 1 µg/mL	5 µg/mL (≈ 20.6 µM)	< 1 µg/mL	< 1 µg/mL	100 µg/mL (≈ 411 µM)	> 500 µg/mL	50 µg/mL (≈ 206 µM)	> 500 µg/mL	< 10 µg/mL	> 500 µg/mL	100 µg/mL (≈ 411 µM)	> 500 µg/mL	100 µg/mL (≈ 411 µM)	> 500 µg/mL	250 µg/mL (≈ 1030 µM)	MIC [3]: < 1 µg/mL; Marine Antifouling Rating, Bottom Panel ([10]; 6 weeks): 10; Marine Antifouling Rating, Top Panel ([10]; 6 weeks): 10; Marine Antifouling Rating, Bottom Panel ([10]; 10 weeks): 9; Marine Antifouling Rating, Top Panel ([10]; 10 weeks): 7; Marine Antifouling Rating, Bottom Panel ([10]; 16 weeks): 9; Marine Antifouling Rating, Top Panel ([10]; 16 weeks): 8; MIC [16, 29]: > 500 µg/mL; MIC [17, 30]: 500 µg/mL (≈ 2060 µM); MIC [17, 31]: > 500 µg/mL
Cn1c(=O)c2sc3nsnc3sc=2c1=O [II, 6-Methyl-5H-Pyrrolo (3',4':5,6)(1,4)dithiino-(2,3-C)(1,2,5)thiadiazole-5,7(6H) -dione]	> 500 µg/mL	100 µg/mL (≈ 389 µM)	> 500 µg/mL	< 1 µg/mL	< 1 µg/mL	< 1 µg/mL	< 1 µg/mL	< 1 µg/mL	< 1 µg/mL	50 µg/mL (≈ 194 µM)	> 500 µg/mL	25 µg/mL (≈ 97.2 µM)	> 500 µg/mL	< 10 µg/mL	250 µg/mL (≈ 972 µM)	250 µg/mL (≈ 972 µM)	> 500 µg/mL	50 µg/mL (≈ 194 µM)	250 µg/mL (≈ 972 µM)	> 500 µg/mL	MIC ([1]; pH 6.8, nutrient agar): > 500 µg/mL; MIC [3]: < 1 µg/mL; MIC [16, 29]: > 500 µg/mL; MIC [17, 30]: > 500 µg/mL; MIC [17, 31]: > 500 µg/mL
CCn1c(=O)c2sc3nsnc3sc=2c1=O [III, 6-Ethyl-5H-Pyrrolo(3',4':5,6)(1,4)dithiino-(2,3-C)(1,2,5)thiadiazole-5,7(6H) -dione]	> 500 µg/mL	250 µg/mL (≈ 921 µM)	> 500 µg/mL	< 10 µg/mL	25 µg/mL (≈ 92.1 µM)	< 10 µg/mL	500 µg/mL (≈ 1840 µM)	< 10 µg/mL	250 µg/mL (≈ 921 µM)	50 µg/mL (≈ 184 µM)	> 500 µg/mL	50 µg/mL (≈ 184 µM)	> 500 µg/mL	25 µg/mL (≈ 92.1 µM)	100 µg/mL (≈ 369 µM)	500 µg/mL (≈ 1840 µM)	> 500 µg/mL	50 µg/mL (≈ 184 µM)	250 µg/mL (≈ 921 µM)	> 500 µg/mL	MIC ([1]; pH 6.8, nutrient agar): > 500 µg/mL; MIC [16, 29]: > 500 µg/mL; MIC [17, 30]: > 500 µg/mL; MIC [17, 31]: > 500 µg/mL
